Patent US11312721B2 (priority 2015, dated 2022)

Experiments:
[1] = molecular target: T1, α5β3γ2 GABAA receptors (Ltk cells) (Homo sapiens, UniProt P18507+P31644); test: Binding activity on GABAAR: inhibition of [3H]Ro15-1788 binding
T1 construct: membranes
Protocol: Tissue culture and Membrane Preparation: The binding was performed on Ltk cells stably expressing GABAA receptors: α1β1γ2, α2β3γ2, α3β3γ2 and α5β3γ2 (provided by Merck Co., NJ, USA). Cells were seeded in 100 mm culture plates in DMEM/F12 medium containing 10% serum and antibiotics in 5% CO2 and allowed to grow for 1-2 days. GABAAR expression was then induced by dexamethasone as follows: 0.5 μM for 1 day for α5 containing and 2 μM for 3 days for α1, α2 and α3 containing GABAARs. After induction, cells were collected by scraping into Dulbecco's Phosphate buffered saline (DPBS, pH 7.4, Invitrogen, Carlsbad, Calif., USA) and centrifuged at 150×g for 10 min. The pellet was washed twice by re-suspension and centrifugation. The cell pellets from at least 5 different preps were combined, suspended in the binding assay buffer (50 mM KH2PO4; 1 mM EDTA; 0.2 M KCl, pH 7.4) and membranes prepared by sonication (3-5 times, 30 sec) using Branson Sonifier 150 (G. Heinmann, Germany). Protein content was determined using BCA assay (Bio-Rad Labs, Reinach, Switzerland) with Bovine Serum Albumin (Sigma Aldrich, St. Louis, Mo., USA) as the standard. Aliquots were prepared and stored at −20° C. for further use in binding assays.
Ligand Binding: Saturation binding curves were obtained by incubating membranes with increasing concentrations (0.01-8 nM) of [^3H]Ro15-1788 (Flumazepil, 75-85 Ci/mmol, PerkinElmer, MA, USA), with nonspecific binding measured in the presence of 10 μM diazepam.
All binding assays were performed for 1 h at 4° C. in assay buffer. The total assay volume was 0.5 ml containing 0.2 mg/ml protein for α5 and 0.4 mg/ml for α1, α2, and α3 containing GABAAR membranes. Incubations were terminated by filtration through GF/B filters using a 24-Cell Harvestor (Brandel, Gaithersburg, Md., USA) followed by 3 washes with ice-cold assay buffer. Filters were transferred to scintillation vials, 5 ml scintillation liquid added, vortex-mixed and kept in dark. Next day, radioactivity was obtained using a scintillation counter (Beckman Coulter, Brea, Calif., USA). All assays were performed in triplicate.
Data Analyses: Saturation and inhibition curves were obtained using GraphPad Prism software (GraphPad Software, Inc., CA, USA).

GABAA receptors (α5β2γ2) = molecular target: T2, GABAA receptors (α5β2γ2) (Homo sapiens, UniProt P18507+P31644); test: Positive allosteric modulator activity: potentiation of EC20 GABA current in oocytes; format: cell-based; conditions: read-out: GABA α5 functional potentiation
T2 construct: expressed in transfected cells
Protocol: On day 1, 1 ng/32 nL of GABAA α5β2γ2 cDNA was injected into one oocyte. Test starts on day 2. The cDNA injected to the oocytes was a mix of alpha, beta and gamma, their ratio is 1:1:10 (by weight) and the total weight of the mixed 3 subunits to be injected in one oocyte was 1 ng in 32 nl volume. The injected oocytes can also be tested on day 3. In such case, the cDNA amount injected to the oocytes should be reduced by 20%.
1). 8 oocytes were placed in 8 chambers of OpusXpress and superfused with Modified Barth's Saline (MBS) at 3 mL/min. Glass electrodes back-filled with 3M KCl (0.5-3 megaohms) were used.
1). Repeat the above steps 1), 2) and 3) in the control test.
2). […] Divide Itest by IGABA to obtain potentiation (%).
3). Discard all tested oocytes, new oocytes were used and the above steps 1) and 2) were repeated to test second concentration of the same compound. Each oocyte was used for only one concentration test for a single test compound. The steps were repeated for other test compounds.

GABAA α5 receptor = molecular target: T3, GABAA α5 receptor (Rattus norvegicus, UniProt P19969); test: GABAA α5 receptor occupancy in vivo with Ro 15-4513 tracer; set-up: species or system Long Evans rats
T3 construct: from tissue
Source text: Food and water were available ad libitum.

T2 sequence (P31644 32-462): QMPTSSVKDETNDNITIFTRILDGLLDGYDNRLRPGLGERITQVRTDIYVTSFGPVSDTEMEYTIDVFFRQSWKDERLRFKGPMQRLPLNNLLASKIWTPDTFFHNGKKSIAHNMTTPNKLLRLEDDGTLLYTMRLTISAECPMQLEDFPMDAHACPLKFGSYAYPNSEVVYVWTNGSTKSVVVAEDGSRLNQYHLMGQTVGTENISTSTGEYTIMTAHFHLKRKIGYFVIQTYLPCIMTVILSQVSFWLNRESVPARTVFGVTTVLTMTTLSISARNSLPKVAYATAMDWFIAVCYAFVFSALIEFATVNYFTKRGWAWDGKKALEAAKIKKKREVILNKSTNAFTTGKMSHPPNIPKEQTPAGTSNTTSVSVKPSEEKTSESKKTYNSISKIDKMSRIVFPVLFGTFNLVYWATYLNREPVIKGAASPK
T2 sequence (P47870 25-512 partner limits assumed): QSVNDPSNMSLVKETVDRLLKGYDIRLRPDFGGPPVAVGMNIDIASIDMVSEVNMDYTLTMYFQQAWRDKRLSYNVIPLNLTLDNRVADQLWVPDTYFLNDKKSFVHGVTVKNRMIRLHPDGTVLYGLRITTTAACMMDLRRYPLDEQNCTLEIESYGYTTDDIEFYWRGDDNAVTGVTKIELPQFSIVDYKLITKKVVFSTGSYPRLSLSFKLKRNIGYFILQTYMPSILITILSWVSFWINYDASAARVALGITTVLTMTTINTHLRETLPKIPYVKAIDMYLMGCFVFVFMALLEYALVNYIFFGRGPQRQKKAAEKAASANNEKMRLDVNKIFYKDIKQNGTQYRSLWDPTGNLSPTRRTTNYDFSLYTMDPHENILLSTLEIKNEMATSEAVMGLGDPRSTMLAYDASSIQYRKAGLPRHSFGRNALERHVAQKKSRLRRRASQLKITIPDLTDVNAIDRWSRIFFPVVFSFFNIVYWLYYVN
T2 sequence (P18507 40-475): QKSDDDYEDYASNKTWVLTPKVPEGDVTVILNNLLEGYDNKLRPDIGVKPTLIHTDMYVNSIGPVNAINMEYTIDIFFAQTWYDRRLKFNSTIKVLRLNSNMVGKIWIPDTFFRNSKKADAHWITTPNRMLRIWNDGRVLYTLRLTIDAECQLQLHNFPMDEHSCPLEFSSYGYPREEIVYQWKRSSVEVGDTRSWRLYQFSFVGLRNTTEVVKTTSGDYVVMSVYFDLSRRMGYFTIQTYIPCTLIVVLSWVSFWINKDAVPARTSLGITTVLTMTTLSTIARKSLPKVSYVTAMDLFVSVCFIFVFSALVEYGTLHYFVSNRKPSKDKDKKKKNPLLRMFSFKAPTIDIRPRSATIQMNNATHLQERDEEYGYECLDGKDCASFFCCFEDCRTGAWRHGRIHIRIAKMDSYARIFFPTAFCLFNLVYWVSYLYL
T1 sequence (P31644 32-462): as the sequence (P31644 32-462) above
T1 sequence (P28472 26-473 partner): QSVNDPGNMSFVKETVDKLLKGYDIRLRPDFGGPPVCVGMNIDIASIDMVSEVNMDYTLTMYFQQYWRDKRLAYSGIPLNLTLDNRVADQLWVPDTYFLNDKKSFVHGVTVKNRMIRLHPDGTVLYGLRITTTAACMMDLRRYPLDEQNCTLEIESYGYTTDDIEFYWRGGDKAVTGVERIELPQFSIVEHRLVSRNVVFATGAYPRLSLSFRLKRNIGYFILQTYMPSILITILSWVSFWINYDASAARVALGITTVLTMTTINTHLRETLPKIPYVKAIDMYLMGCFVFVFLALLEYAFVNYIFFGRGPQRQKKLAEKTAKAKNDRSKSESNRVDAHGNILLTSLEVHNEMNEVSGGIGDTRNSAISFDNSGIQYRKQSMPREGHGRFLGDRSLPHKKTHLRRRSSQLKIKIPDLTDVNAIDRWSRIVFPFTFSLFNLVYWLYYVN
T1 sequence (P18507 40-475): as the sequence (P18507 40-475) above
T3 sequence (P19969 32-464 limits assumed): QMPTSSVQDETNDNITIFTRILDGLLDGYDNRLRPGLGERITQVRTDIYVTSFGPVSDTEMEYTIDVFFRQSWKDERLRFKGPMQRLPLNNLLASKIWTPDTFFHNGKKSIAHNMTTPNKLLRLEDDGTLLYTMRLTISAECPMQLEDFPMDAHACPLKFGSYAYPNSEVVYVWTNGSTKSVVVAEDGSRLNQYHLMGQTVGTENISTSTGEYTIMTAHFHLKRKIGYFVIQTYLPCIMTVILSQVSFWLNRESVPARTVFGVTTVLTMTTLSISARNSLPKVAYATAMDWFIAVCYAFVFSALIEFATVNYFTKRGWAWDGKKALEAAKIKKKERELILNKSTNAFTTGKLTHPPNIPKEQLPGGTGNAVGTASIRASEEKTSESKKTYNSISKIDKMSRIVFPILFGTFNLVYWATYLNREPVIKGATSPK

Compound | Ki [1] [nM] | activation at 0.1 µM (GABAA receptors (α5β2γ2)) [%] | effect on Ro 15-4513 binding in hippocampus and cerebellum (GABAA α5 receptor; 0.01-10 mg/kg, i.v.) | tracer level, hippocampus compared with cerebellum (GABAA α5 receptor; 1 μg/kg, i.v. tracer after vehicle) [fold]
COc1ccc2c(c1)-n1nnc(COc3ccccc3)c1Cc1c(-c3noc(C)n3)ncn1-2 [Compound 182] | < 99 | 20 to 49 |  | 
COc1ccc2c(c1)-c1nnc(COCc3cccc(F)c3)n1Cc1c(-c3noc(C(C)C)n3)ncn1-2 [Compound 183] | < 99 | 20 to 49 |  | 
COc1ccc2c(c1)-c1nnc(COCc3ccccc3F)n1Cc1c(-c3noc(C(C)C)n3)ncn1-2 [Compound 184] | < 99 | 20 to 49 |  | 
CC(C)c1nc(-c2ncn3c2Cn2c(COc4cccnc4)nnc2-c2cc(F)ccc2-3)no1 [Compound 185] | < 99 | > 50 |  | 
COCc1nnc2n1Cc1c(-c3noc(C(C)C)n3)ncn1-c1ccc(F)cc1-2 [Compound 186] | < 99 | > 50 |  | 
CCOCc1nnc2n1Cc1c(-c3noc(C(C)C)n3)ncn1-c1ccc(F)cc1-2 [Compound 187] | < 99 | 20 to 49 |  | 
CC(C)c1nc(-c2ncn3c2Cn2c(COc4cccc(F)c4)nnc2-c2cc(F)ccc2-3)no1 [Compound 188] | < 99 | 20 to 49 |  | 
CC(C)c1nc(-c2ncn3c2Cn2c(COc4ccc(F)cc4)nnc2-c2cc(F)ccc2-3)no1 [Compound 189] | < 99 | 20 to 49 |  | 
CCc1nc(-c2ncn3c2Cc2c(Cc4ccccc4)nnn2-c2cc(OC)ccc2-3)no1 [Compound 194] | < 99 | > 50 |  | 
CCc1nc(-c2ncn3c2Cc2c(Cc4ccc(F)cc4)nnn2-c2cc(OC)ccc2-3)no1 [Compound 195] | < 99 | 20 to 49 |  | 
COc1ccc2c(c1)-c1nnc(COc3cccc(F)c3)n1Cc1c(C#N)ncn1-2 [Compound 196] | < 99 | 20 to 49 |  | 
COCc1nnc2n1Cc1c(-c3nc(C)no3)ncn1-c1ccc(Cl)cc1-2 [Compound 198] | < 99 | 20 to 49 |  | 
FC(F)=Cc1ncn2c1Cn1c(COc3ccccc3)nnc1-c1cc(Cl)ccc1-2 [Compound 199] | < 99 | 20 to 49 |  | 
Clc1ccc2c(c1)-c1nnc(COc3ccccc3)n1Cc1c(Br)ncn1-2 [Compound 202] | < 99 | 20 to 49 |  | 
COc1ccc2c(c1)-c1nnc(COCc3cccnc3)n1Cc1c(-c3noc(C(C)C)n3)ncn1-2 [Compound 203] | < 99 | 20 to 49 |  | 
C#Cc1ncn2c1Cn1c(COc3ccccc3)nnc1-c1cc(Cl)ccc1-2 [Compound 205] | < 99 | 20 to 49 |  | 
COc1ccc2c(c1)-n1nnc(Cc3ccccc3)c1Cc1c(C#N)ncn1-2 [Compound 207] | < 99 | 20 to 49 |  | 
COc1ccc2c(c1)-n1nnc(Cc3cccnc3)c1Cc1c(C#N)ncn1-2 [Compound 210] | < 99 | 20 to 49 |  | 

Compound | Ki [1] [nM] | activation at 0.1 µM (GABAA receptors (α5β2γ2)) [%] | effect on Ro 15-4513 binding in hippocampus and cerebellum (GABAA α5 receptor; 0.01-10 mg/kg, i.v.) | tracer level, hippocampus compared with cerebellum (GABAA α5 receptor; 1 μg/kg, i.v. tracer after vehicle) [fold]
COc1ccc2c(c1)-n1nnc(COc3ccc(F)cc3)c1Cc1c(C#N)ncn1-2 [Compound 222] | < 99 | 20 to 49 |  | 
COc1ccc2c(c1)-n1nnc(COc3ccccc3)c1Cc1c(C#N)ncn1-2 [Compound 224] | < 99 | 20 to 49 |  | 
COc1ccc2c(c1)-n1nnc(COc3cccc(Br)c3)c1Cc1c(C#N)ncn1-2 [Compound 225] | < 99 | 20 to 49 |  | 
N#Cc1ncn2c1Cc1c(COc3ccccc3)nnn1-c1cc(Cl)ccc1-2 [Compound 226] | < 99 | 20 to 49 |  | 
COCc1nnc2n1Cc1c(C3=NCCO3)ncn1-c1ccc(Cl)cc1-2 [Compound 238] | < 99 | 20 to 49 |  | 
COCc1nnc2n1Cc1c(C3=NC(C)CO3)ncn1-c1ccc(Cl)cc1-2 (centres unmarked) [Compound 243] | < 99 | 20 to 49 |  | 
COCc1nnc2n1Cc1c(-c3ncco3)ncn1-c1ccc(Cl)cc1-2 [Compound 249] | < 99 | 20 to 49 |  | 
CCOCc1nnc2n1Cc1c(-c3nc(C(C)C)no3)ncn1-c1ccc(Cl)cc1-2 [Compound 254] | < 99 | 20 to 49 |  | 
CCOCc1nnc2n1Cc1c(-c3nc(C)no3)ncn1-c1ccc(Cl)cc1-2 [Compound 255] | < 99 | 20 to 49 |  | 
C#Cc1ncn2c1Cn1c(COC)nnc1-c1cc(Cl)ccc1-2 [Compound 256] | < 99 | 20 to 49 |  | 
COc1ccc2c(c1)-n1nncc1Cc1c(-c3nc(C(C)C)no3)ncn1-2 [Compound 257] | < 99 | 20 to 49 |  | 
COCc1nnc2n1Cc1c(C3=N[C@@H](c4ccccc4)CO3)ncn1-c1ccc(Cl)cc1-2 [Compound 264] | < 99 | 20 to 49 |  | 
CCOCc1nnc2n1Cc1c(C3=N[C@H](c4ccccc4)CO3)ncn1-c1ccc(Cl)cc1-2 [Compound 271] | < 99 | > 50 |  | 
COc1ccc2c(c1)-n1nncc1Cc1c(C3=N[C@H](c4ccccc4)CO3)ncn1-2 [Compound 290] | < 99 | 20 to 49 |  | 
COCc1nnc2n1Cc1c(C#Cc3ccccc3C)ncn1-c1ccc(Cl)cc1-2 [Compound 293] | < 99 | 20 to 49 |  | 
CCOC(=O)c1ncn2c1Cn1c(C)nnc1-c1cc(OC)ccc1-2 [Ethyl 3-methoxy-7-methyl-9H-benzo[f]imidazo[1,5-a][1,2,4]tri] |  |  | blocked the binding of Ro154513 in the hippocampus but did not affect binding of Ro15413 in the cerebellum | 
CCOC(=O)c1ncn2c1CN(C)C(=O)c1cc(N=[N+]=[N-])ccc1-2 [Ro 15-4513] |  |  |  | > 5
